Laboratory results taken from paper PMC5392334, “Discovery and characterization of a novel irreversible EGFR mutants selective and potent kinase inhibitor CHMFL-EGFR-26 with a distinct binding mode” (Oncotarget, 2017).

Columns and labels:
EGFR(T790M) = molecular target: T1, EGFR(T790M) (Homo sapiens, UniProt P00533, T790M); assay: KinomeScan; assay type: binding; conditions: read-out: % control
T1 construct: purchased DiscoveRx KINOMEscan

[1] = molecular target: T2, ABL1(F317I)-nonphosphorylated (Homo sapiens, UniProt P00519, F317I); assay: KinomeScan; assay type: binding; conditions: read-out: % control
T2 construct: purchased DiscoveRx KINOMEscan
T2 sequence (P00519 whole entry F317I): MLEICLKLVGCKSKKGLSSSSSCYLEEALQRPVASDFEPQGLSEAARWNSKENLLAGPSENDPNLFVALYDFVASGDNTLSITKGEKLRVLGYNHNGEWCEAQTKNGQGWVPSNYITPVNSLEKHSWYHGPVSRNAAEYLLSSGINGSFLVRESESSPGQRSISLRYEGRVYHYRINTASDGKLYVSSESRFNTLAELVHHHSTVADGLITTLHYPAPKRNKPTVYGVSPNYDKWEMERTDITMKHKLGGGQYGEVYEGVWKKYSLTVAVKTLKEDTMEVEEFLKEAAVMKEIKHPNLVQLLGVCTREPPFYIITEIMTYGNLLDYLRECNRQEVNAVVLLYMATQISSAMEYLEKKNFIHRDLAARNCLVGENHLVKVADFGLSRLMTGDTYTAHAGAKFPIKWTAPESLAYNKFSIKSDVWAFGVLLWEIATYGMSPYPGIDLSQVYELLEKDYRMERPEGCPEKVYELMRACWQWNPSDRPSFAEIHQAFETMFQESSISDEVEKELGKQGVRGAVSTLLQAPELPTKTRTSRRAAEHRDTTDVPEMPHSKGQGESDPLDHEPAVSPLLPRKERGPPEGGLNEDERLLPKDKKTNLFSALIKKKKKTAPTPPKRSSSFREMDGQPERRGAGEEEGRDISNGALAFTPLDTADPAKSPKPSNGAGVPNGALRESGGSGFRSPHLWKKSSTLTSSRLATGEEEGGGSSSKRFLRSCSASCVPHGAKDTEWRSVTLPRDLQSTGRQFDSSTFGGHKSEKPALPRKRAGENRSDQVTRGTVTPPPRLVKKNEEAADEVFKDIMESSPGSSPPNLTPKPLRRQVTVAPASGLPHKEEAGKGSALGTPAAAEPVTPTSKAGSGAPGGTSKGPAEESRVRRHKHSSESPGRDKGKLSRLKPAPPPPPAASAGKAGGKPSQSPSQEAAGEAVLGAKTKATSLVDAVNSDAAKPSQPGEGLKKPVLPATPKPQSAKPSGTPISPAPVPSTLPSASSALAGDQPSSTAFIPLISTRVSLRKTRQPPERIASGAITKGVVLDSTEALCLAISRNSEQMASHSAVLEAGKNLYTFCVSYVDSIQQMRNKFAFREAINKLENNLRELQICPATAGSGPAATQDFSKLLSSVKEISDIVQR

MST3 = molecular target: T3, MST3 (Homo sapiens, UniProt Q9Y6E0); assay: KinomeScan; assay type: binding; conditions: read-out: % control
T3 construct: purchased DiscoveRx KINOMEscan

CLK1 = molecular target: T4, CLK1 (Homo sapiens, UniProt P49759); assay: KinomeScan; assay type: binding; conditions: read-out: % control
T4 construct: purchased DiscoveRx KINOMEscan

[2] = molecular target: T5, RSK2(Kin.Dom.1-N-terminal) (Homo sapiens, UniProt P51812); assay: KinomeScan; assay type: binding; conditions: read-out: % control
T5 construct: RSK2(Kin.Dom.1-N-terminal); purchased DiscoveRx KINOMEscan
T5 sequence (P51812 1-397 limits assumed): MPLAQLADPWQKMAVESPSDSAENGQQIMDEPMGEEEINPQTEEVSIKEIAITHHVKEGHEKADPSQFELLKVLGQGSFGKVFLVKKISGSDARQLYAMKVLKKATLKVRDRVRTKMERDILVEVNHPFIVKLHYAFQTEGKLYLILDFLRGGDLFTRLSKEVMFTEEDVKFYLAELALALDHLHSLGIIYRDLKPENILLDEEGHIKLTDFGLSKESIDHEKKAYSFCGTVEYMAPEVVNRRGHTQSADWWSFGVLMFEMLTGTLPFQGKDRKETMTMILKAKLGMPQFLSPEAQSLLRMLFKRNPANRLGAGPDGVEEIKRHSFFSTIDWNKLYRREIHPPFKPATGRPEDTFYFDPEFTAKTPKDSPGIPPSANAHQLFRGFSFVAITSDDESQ

MRCKA = molecular target: T6, MRCKA (Homo sapiens, UniProt Q5VT25); assay: KinomeScan; assay type: binding; conditions: read-out: % control
T6 construct: purchased DiscoveRx KINOMEscan

EGFR(S752-I759del) = molecular target: T7, EGFR(S752-I759del) (Homo sapiens, UniProt P00533, DEL752-759); assay: KinomeScan; assay type: binding; conditions: read-out: % control
T7 construct: purchased DiscoveRx KINOMEscan
T7 sequence (P00533 with tags, fused parts or gaps DEL752-759 limits assumed): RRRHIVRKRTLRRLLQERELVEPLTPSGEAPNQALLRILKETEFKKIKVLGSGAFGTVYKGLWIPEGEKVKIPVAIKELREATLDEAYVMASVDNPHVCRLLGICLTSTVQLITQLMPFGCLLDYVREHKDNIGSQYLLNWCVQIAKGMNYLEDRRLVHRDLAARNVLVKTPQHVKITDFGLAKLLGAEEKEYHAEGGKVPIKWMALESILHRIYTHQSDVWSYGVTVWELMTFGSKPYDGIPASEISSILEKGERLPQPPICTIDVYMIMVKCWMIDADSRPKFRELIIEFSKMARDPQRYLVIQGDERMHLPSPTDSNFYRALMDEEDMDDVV

DLK = molecular target: T8, DLK (Homo sapiens, UniProt Q12852); assay: KinomeScan; assay type: binding; conditions: read-out: % control
T8 construct: purchased DiscoveRx KINOMEscan

FLT3(N841I) = molecular target: T9, FLT3(N841I) (Homo sapiens, UniProt P36888, N841I); assay: KinomeScan; assay type: binding; conditions: read-out: % control
T9 construct: purchased DiscoveRx KINOMEscan

CHL = assay: Anti-proliferation, normal cells (CellTiter-Glo); conditions: Cricetulus griseus, 72 h
Description: Cells were grown in 96-well culture plates (2500-3000/well). For adherent cell lines, compounds of various concentrations were added into the plates after cells were cultured for 12 hours. Cell proliferation was determined after treatment with compounds for 72 hours. Cell viability was measured using the CellTiter–Glo assay (Promega, USA) according to the manufacturer's instructions, and luminescence was measured in a multi-label reader (Envision, PerkinElmer, USA). Data were normalized to control groups (DMSO) and represented by the mean of three independent measurements with standard error <20%. GI50 values were calculated using Prism 5.0 (GraphPad Software, San Diego, CA).

ASK1 = molecular target: T10, ASK1 (Homo sapiens, UniProt Q99683); assay: KinomeScan; assay type: binding; conditions: read-out: % control
T10 construct: purchased DiscoveRx KINOMEscan

DYRK1B = molecular target: T11, DYRK1B (Homo sapiens, UniProt Q9Y463); assay: KinomeScan; assay type: binding; conditions: read-out: % control
T11 construct: purchased DiscoveRx KINOMEscan

ZAP70 = molecular target: T12, ZAP70 (Homo sapiens, UniProt P43403); assay: KinomeScan; assay type: binding; conditions: read-out: % control
T12 construct: purchased DiscoveRx KINOMEscan

NEK6 = molecular target: T13, NEK6 (Homo sapiens, UniProt Q9HC98); assay: KinomeScan; assay type: binding; conditions: read-out: % control
T13 construct: purchased DiscoveRx KINOMEscan

CDK4-cyclinD3 = molecular target: T14, CDK4-cyclinD3 (Homo sapiens, UniProt P11802); assay: KinomeScan; assay type: binding; conditions: read-out: % control
T14 construct: purchased DiscoveRx KINOMEscan

AKT1 = molecular target: T15, AKT1 (Homo sapiens, UniProt P31749); assay: KinomeScan; assay type: binding; conditions: read-out: % control
T15 construct: purchased DiscoveRx KINOMEscan

YANK3 = molecular target: T16, YANK3 (Homo sapiens, UniProt Q86UX6); assay: KinomeScan; assay type: binding; conditions: read-out: % control
T16 construct: purchased DiscoveRx KINOMEscan

WNK4 = molecular target: T17, WNK4 (Homo sapiens, UniProt Q96J92); assay: KinomeScan; assay type: binding; conditions: read-out: % control
T17 construct: purchased DiscoveRx KINOMEscan
T17 sequence (Q96J92 whole entry): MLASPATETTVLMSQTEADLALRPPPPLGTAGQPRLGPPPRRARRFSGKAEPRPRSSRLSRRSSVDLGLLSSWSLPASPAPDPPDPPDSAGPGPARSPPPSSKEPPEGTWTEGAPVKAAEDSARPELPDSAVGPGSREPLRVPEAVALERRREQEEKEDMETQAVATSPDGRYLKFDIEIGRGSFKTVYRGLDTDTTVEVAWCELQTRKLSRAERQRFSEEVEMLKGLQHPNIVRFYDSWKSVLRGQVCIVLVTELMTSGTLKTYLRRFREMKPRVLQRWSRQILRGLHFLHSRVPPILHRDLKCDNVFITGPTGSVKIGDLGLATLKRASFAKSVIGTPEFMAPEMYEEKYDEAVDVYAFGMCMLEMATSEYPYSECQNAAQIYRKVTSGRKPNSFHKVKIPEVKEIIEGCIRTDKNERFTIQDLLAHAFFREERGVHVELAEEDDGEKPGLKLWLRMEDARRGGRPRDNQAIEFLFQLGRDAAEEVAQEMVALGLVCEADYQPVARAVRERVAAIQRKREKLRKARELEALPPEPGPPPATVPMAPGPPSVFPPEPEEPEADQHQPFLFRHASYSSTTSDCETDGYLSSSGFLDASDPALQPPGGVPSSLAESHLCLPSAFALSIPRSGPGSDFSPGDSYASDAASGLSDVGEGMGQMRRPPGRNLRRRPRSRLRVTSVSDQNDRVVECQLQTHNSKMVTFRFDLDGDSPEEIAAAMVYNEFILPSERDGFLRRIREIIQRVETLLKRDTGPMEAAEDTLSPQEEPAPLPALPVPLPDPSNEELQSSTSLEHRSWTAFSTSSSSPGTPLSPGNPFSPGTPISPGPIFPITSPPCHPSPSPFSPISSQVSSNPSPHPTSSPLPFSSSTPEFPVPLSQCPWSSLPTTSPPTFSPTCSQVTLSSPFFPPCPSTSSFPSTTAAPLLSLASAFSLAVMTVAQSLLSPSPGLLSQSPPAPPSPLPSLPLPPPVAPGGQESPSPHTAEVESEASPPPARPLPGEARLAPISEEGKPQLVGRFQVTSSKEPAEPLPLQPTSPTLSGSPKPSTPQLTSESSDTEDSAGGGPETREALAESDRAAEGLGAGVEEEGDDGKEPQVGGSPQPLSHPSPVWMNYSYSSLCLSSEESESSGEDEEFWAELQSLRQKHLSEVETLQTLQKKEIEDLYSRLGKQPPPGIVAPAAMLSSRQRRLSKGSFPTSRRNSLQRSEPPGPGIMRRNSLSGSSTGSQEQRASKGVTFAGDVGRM

PLK4 = molecular target: T18, PLK4 (Homo sapiens, UniProt O00444); assay: KinomeScan; assay type: binding; conditions: read-out: % control
T18 construct: purchased DiscoveRx KINOMEscan

MST1 = molecular target: T19, MST1 (Homo sapiens, UniProt Q13043); assay: KinomeScan; assay type: binding; conditions: read-out: % control
T19 construct: purchased DiscoveRx KINOMEscan

CAMK4 = molecular target: T20, CAMK4 (Homo sapiens, UniProt Q16566); assay: KinomeScan; assay type: binding; conditions: read-out: % control
T20 construct: purchased DiscoveRx KINOMEscan

DMPK = molecular target: T21, DMPK (Homo sapiens, UniProt Q09013); assay: KinomeScan; assay type: binding; conditions: read-out: % control
T21 construct: purchased DiscoveRx KINOMEscan

HIPK1 = molecular target: T22, HIPK1 (Homo sapiens, UniProt Q86Z02); assay: KinomeScan; assay type: binding; conditions: read-out: % control
T22 construct: purchased DiscoveRx KINOMEscan

AURKB = molecular target: T23, AURKB (Homo sapiens, UniProt Q96GD4); assay: KinomeScan; assay type: binding; conditions: read-out: % control
T23 construct: purchased DiscoveRx KINOMEscan

NEK9 = molecular target: T24, NEK9 (Homo sapiens, UniProt Q8TD19); assay: KinomeScan; assay type: binding; conditions: read-out: % control
T24 construct: purchased DiscoveRx KINOMEscan

[3] = molecular target: T25, RPS6KA4(Kin.Dom.1-N-terminal) (Homo sapiens, UniProt O75676); assay: KinomeScan; assay type: binding; conditions: read-out: % control
T25 construct: RPS6KA4(Kin.Dom.1-N-terminal); purchased DiscoveRx KINOMEscan

GRK2 = molecular target: T26, GRK2 (Homo sapiens, UniProt P25098); assay: KinomeScan; assay type: binding; conditions: read-out: % control
T26 construct: purchased DiscoveRx KINOMEscan

MUSK = molecular target: T27, MUSK (Homo sapiens, UniProt O15146); assay: KinomeScan; assay type: binding; conditions: read-out: % control
T27 construct: purchased DiscoveRx KINOMEscan

DAPK1 = molecular target: T28, DAPK1 (Homo sapiens, UniProt P53355); assay: KinomeScan; assay type: binding; conditions: read-out: % control
T28 construct: purchased DiscoveRx KINOMEscan

NDR2 = molecular target: T29, NDR2 (Homo sapiens, UniProt Q9Y2H1); assay: KinomeScan; assay type: binding; conditions: read-out: % control
T29 construct: purchased DiscoveRx KINOMEscan
T29 sequence (Q9Y2H1 whole entry): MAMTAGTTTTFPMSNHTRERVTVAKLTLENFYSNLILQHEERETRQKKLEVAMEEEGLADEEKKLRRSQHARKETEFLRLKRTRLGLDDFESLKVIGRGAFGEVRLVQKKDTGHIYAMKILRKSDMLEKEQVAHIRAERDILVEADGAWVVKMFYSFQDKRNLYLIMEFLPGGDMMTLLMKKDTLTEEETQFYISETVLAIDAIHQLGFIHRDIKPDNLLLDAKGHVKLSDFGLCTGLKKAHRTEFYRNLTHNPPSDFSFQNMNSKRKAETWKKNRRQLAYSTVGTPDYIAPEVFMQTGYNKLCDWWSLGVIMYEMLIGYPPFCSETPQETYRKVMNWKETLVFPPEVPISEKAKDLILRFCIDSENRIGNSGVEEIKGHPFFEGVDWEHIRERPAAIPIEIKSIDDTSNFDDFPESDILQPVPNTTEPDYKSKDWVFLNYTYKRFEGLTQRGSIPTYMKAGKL

MET = molecular target: T30, MET (Homo sapiens, UniProt P08581); assay: KinomeScan; assay type: binding; conditions: read-out: % control
T30 construct: purchased DiscoveRx KINOMEscan

TXK = molecular target: T31, TXK (Homo sapiens, UniProt P42681); assay: KinomeScan; assay type: binding; conditions: read-out: % control
T31 construct: purchased DiscoveRx KINOMEscan

CAMK1 = molecular target: T32, CAMK1 (Homo sapiens, UniProt Q14012); assay: KinomeScan; assay type: binding; conditions: read-out: % control
T32 construct: purchased DiscoveRx KINOMEscan

EGFR(G719C) = molecular target: T33, EGFR(G719C) (Homo sapiens, UniProt P00533, G719C); assay: KinomeScan; assay type: binding; conditions: read-out: % control
T33 construct: purchased DiscoveRx KINOMEscan

MLCK = molecular target: T34, MLCK (Homo sapiens, UniProt Q32MK0); assay: KinomeScan; assay type: binding; conditions: read-out: % control
T34 construct: purchased DiscoveRx KINOMEscan

IRAK3 = molecular target: T35, IRAK3 (Homo sapiens, UniProt Q9Y616); assay: KinomeScan; assay type: binding; conditions: read-out: % control
T35 construct: purchased DiscoveRx KINOMEscan

[4] = molecular target: T36, RSK1(Kin.Dom.1-N-terminal) (Homo sapiens, UniProt Q15418); assay: KinomeScan; assay type: binding; conditions: read-out: % control
T36 construct: RSK1(Kin.Dom.1-N-terminal); purchased DiscoveRx KINOMEscan

FGFR1 = molecular target: T37, FGFR1 (Homo sapiens, UniProt P11362); assay: KinomeScan; assay type: binding; conditions: read-out: % control
T37 construct: purchased DiscoveRx KINOMEscan
T37 sequence (P11362 22-822): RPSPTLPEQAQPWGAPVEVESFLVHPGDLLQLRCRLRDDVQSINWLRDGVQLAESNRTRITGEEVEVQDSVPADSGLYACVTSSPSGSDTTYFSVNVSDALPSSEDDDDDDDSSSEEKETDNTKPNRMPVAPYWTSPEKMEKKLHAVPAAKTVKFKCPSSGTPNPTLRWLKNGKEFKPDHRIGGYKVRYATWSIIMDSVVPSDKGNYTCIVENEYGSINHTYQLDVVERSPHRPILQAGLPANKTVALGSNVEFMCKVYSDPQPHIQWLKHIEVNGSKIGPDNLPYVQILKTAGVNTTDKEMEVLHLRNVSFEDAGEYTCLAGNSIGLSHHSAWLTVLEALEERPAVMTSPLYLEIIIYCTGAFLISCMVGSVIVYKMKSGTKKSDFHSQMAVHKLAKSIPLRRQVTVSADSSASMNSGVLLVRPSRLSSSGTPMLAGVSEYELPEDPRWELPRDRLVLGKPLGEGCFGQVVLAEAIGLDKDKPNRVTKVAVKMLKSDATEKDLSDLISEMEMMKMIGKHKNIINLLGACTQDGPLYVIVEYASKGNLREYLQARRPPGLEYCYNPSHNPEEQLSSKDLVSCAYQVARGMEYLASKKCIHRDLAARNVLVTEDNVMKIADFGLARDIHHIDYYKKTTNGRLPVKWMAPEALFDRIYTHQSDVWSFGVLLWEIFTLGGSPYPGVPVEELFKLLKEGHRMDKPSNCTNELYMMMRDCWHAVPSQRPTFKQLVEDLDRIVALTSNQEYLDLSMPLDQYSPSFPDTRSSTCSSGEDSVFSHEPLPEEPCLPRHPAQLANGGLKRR

EPHB4 = molecular target: T38, EPHB4 (Homo sapiens, UniProt P54760); assay: KinomeScan; assay type: binding; conditions: read-out: % control
T38 construct: purchased DiscoveRx KINOMEscan

AMPK-alpha2 = molecular target: T39, AMPK-alpha2 (Homo sapiens, UniProt P54646); assay: KinomeScan; assay type: binding; conditions: read-out: % control
T39 construct: purchased DiscoveRx KINOMEscan
T39 sequence (P54646 whole entry): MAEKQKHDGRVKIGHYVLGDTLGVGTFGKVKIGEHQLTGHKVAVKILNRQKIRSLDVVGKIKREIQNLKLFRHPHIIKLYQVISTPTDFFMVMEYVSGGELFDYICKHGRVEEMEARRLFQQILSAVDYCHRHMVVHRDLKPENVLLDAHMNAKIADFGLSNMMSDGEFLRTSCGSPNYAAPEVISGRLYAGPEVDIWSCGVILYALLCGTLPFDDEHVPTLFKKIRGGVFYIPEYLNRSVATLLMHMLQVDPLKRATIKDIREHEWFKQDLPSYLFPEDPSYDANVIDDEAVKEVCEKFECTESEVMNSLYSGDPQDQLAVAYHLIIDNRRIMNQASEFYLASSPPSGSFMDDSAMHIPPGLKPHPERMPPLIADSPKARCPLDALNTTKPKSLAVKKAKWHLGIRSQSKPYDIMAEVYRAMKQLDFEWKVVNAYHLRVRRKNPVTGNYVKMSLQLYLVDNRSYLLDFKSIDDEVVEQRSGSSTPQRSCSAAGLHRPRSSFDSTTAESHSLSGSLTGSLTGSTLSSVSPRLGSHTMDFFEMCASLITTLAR

MAP3K2 = molecular target: T40, MAP3K2 (Homo sapiens, UniProt Q9Y2U5); assay: KinomeScan; assay type: binding; conditions: read-out: % control
T40 construct: purchased DiscoveRx KINOMEscan

MLK1 = molecular target: T41, MLK1 (Homo sapiens, UniProt P80192); assay: KinomeScan; assay type: binding; conditions: read-out: % control
T41 construct: purchased DiscoveRx KINOMEscan

Structure (SMILES): C=CC(=O)N1CCC[C@@H](n2nc(-c3ccc(OCc4cccc(C)n4)c(Cl)c3)c3c(N)ncnc32)C1 [CHMFL-EGFR-26]
- remaining binding at 1 µM (EGFR(T790M)): 0.25%
- remaining binding at 1 µM [1]: 100%
- remaining binding at 1 µM (MST3): 39%
- remaining binding at 1 µM (CLK1): 94%
- remaining binding at 1 µM [2]: 95%
- remaining binding at 1 µM (MRCKA): 64%
- remaining binding at 1 µM (EGFR(S752-I759del)): 12%
- remaining binding at 1 µM (DLK): 78%
- remaining binding at 1 µM (FLT3(N841I)): 93%
- GI50 (CHL): > 10 µM
- remaining binding at 1 µM (ASK1): 97%
- remaining binding at 1 µM (DYRK1B): 85%
- remaining binding at 1 µM (ZAP70): 100%
- remaining binding at 1 µM (NEK6): 100%
- remaining binding at 1 µM (CDK4-cyclinD3): 100%
- remaining binding at 1 µM (AKT1): 98%
- remaining binding at 1 µM (YANK3): 90%
- remaining binding at 1 µM (WNK4): 86%
- remaining binding at 1 µM (PLK4): 99%
- remaining binding at 1 µM (MST1): 61%
- remaining binding at 1 µM (CAMK4): 100%
- remaining binding at 1 µM (DMPK): 66%
- remaining binding at 1 µM (HIPK1): 98%
- remaining binding at 1 µM (AURKB): 77%
- remaining binding at 1 µM (NEK9): 94%
- remaining binding at 1 µM [3]: 11%
- remaining binding at 1 µM (GRK2): 99%
- remaining binding at 1 µM (MUSK): 84%
- remaining binding at 1 µM (DAPK1): 77%
- remaining binding at 1 µM (NDR2): 100%
- remaining binding at 1 µM (MET): 96%
- remaining binding at 1 µM (TXK): 15%
- remaining binding at 1 µM (CAMK1): 100%
- remaining binding at 1 µM (EGFR(G719C)): 16%
- remaining binding at 1 µM (MLCK): 100%
- remaining binding at 1 µM (IRAK3): 94%
- remaining binding at 1 µM [4]: 97%
- remaining binding at 1 µM (FGFR1): 100%
- remaining binding at 1 µM (EPHB4): 100%
- remaining binding at 1 µM (AMPK-alpha2): 90%
- remaining binding at 1 µM (MAP3K2): 52%
- remaining binding at 1 µM (MLK1): 99%
